Data reported in US6020328A, “20-keto-11β-arylsteroids and their derivatives having agonist or antagonist hormonal properties” (Research Triangle Institute, priority 1998, dated 2000).

Experiments:
[1] = system: immature female rabbits; experiment: anti-estrogenic activity in vivo (uterine weight); design: species or system rabbit
Experimental: Steril. 52: 1055-1060 (1989). […] The weight of uteri from untreated immature rabbits was increased from 246±87 (S.E.) mg with no estradiol to 1402±104 mg with estradiol alone. Concurrent treatment of rabbits with estradiol and 10 mg/day of 17α-acetoxy-11β-(4-(N-piperidino)phenyl)-19-norpregna-4,9-diene-3,20-dione reduced the uterine weights to 998±98 mg. Likewise 17α-acetoxy-11β-(4-N-pyrrolidino)phenyl)-19-norpregna-4,9-diene-3,20-dione at 10 mg/day reduced the uterine weight to 919±115 mg, and 17α-acetoxy-11β-(1-methyl-5-indolyl)-19-norpregna-4,9-diene-3,20-dione reduced uterine weight to 956±115 mg at the same dose.

[2] = system: immature New Zealand white rabbits; experiment: anti-Clauberg assay for oral antiprogestational activity; format: in vivo, rabbit; details: for ED50, anti-Clauberg assay: 5 days; for ED50, anti-Clauberg assay / effectiveness in inhibiting the endometrial response: with progesterone SC
Experimental: In this assay immature New Zealand white rabbits were primed with estrogen by treatment with estradiol for six days. They were then given progesterone subcutaneously (SC) and the test compound (orally) for 5 days. On the day following the treatment, the uteri were excised and examined histologically. The endometrial response was graded by the method of McPhail and the % inhibition was determined at each dose. Statistical analysis provides for an ED50 value.

[3] = system: Ishikawa human endometrial adenocarcinoma cell line; experiment: anti-estrogenic activity in Ishikawa cells (block of estrogen-stimulated alkaline phosphates activity); format: cell-based; details: for anti-estrogenic activity in the Ishikawa cell assay: in words, concentration not given
[4] = system: Human T-47D breast cells; experiment: T-47D cell proliferation, antagonist format (inhibition of 0.15 nM R5020-mediated proliferation); format: cell-based; details: T47D; for EC50: inhibition of 0.15 nM R5020-mediated proliferation, N.D. not detected; for Emax: maximum % inhibition, 0.15 nM R5020, read-out: Cell Proliferation Antagonist maximum % Inhib.
Experimental: (§1) Human T-47D breast cells grown in nutrient media were incubated with the standard progestin R5020 alone or with R5020 plus test compound and then assessed by standard procedures for proliferation using incorporation of [^3 H]-thymidine as the measurement. […] The maximum % inhibition (a measure of the efficacy of the compounds) is also given. In the agonist format of this assay the compounds were tested at concentrations ranging from 0.01 to 10 nM and the maximum % stimulation at any dose is listed in Table 2. […] However, the presence of a very polar hydroxyl group in the 17α-position greatly diminishes antiprogestational activity and this holds even when the OH is separated from the 17-carbon atom by a methylene group.

[5] = system: Human T-47D breast cells; experiment: T-47D cell proliferation, agonist format; format: cell-based; details: T47D, 0.01 to 10 nM, maximum at any dose, read-out: Cell Proliferation Agonist maximum % Stim.
Experimental: as §1

[6] = system: rabbits; experiment: McGinty test (agonist, test compound alone); format: in vivo, rabbit
Experimental: (§2) Progestational activity and antiprogestational activity were determined in rabbits by means of the McGinty test (test compound alone, procedure of McGinty et al., Endocrinology, 24:829-832 (1939)) or anti-McGinty test (test compound plus progesterone, procedure of Tamara et al., Jpn. J. Fertil. Steril. 24:48-81 (1979)). Results were scored according to McPhail (McPhail, J. Physiol., 83:146 (1934)).

[7] = molecular target: progestin receptor (hPR); experiment: progestin receptor binding; details: cytosol from human T-47D breast cells; [3H]-R5020; read-out: Receptor Binding Affinity hPR IC50
Text: However, the receptors were of human origin and a different radioligand was used. Thus, for progestin receptor binding the receptor was obtained in cytosol from human T-47D breast cells and [^3 H]-R5020 was used as the radioligand. Data are expressed as IC50 values, i.e., the concentration of compound that inhibits the radioligand binding by 50%.

[8] = system: immature male rats; experiment: antiglucocorticoid activity in vivo (thymus weight); design: species or system rat
Experimental: The ability of the compounds to block the effects of dexamethasone (6 μg per day for 7 days) on thymus weight of immature male rats was assessed.

[9] = system: rabbits; experiment: anti-McGinty test (antagonist, test compound plus progesterone); format: in vivo, rabbit; details: for McPhail Index, McGinty Assay (Antagonist): plus progesterone
Experimental: as §2

[10] = molecular target: T1, androgen receptor (Rattus norvegicus, UniProt P15207); experiment: androgen receptor binding
T1 construct: using the cytosolic receptor from rat central prostate; from tissue
T1 sequence (P15207 1-902): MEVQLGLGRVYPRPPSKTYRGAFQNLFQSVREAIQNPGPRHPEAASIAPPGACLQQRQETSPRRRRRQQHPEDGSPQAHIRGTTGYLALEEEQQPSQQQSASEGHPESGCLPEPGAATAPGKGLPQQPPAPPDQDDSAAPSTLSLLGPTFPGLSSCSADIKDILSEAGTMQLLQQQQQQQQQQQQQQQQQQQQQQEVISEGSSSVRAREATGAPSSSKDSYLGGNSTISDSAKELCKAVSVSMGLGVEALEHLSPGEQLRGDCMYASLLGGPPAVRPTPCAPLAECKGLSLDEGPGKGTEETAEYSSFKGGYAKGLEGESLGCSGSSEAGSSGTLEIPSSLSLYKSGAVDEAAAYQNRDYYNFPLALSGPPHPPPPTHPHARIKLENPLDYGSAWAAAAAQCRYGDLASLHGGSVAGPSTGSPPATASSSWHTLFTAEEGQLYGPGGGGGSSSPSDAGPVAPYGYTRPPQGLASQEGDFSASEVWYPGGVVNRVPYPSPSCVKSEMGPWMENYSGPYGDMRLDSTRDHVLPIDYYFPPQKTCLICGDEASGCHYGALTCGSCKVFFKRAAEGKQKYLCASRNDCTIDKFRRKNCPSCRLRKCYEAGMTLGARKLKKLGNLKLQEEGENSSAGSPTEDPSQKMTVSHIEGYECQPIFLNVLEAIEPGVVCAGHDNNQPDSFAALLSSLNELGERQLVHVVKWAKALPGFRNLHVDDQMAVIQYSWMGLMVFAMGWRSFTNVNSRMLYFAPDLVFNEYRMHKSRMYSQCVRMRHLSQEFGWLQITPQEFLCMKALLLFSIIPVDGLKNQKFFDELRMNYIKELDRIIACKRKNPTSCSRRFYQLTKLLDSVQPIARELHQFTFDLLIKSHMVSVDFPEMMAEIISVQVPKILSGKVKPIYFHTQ

[11] = system: rabbits; details: in words; Cook et al., Human Reproduction 1994; cited from earlier work
[12] = test compound 10 mg/day oral + 5 μg estradiol per day

With `C[C@]12CC[C@@H]3c4ccc(O)cc4CC[C@H]3[C@@H]1CC[C@@H]2O` [estradiol, reference compound] the uterine weight ([1]; estradiol alone, 5 μg per day) was 1402 ± 104 mg.

In the case of `CC#C[C@]1(O)CC[C@H]2[C@@H]3CCC4=CC(=O)CCC4=C3[C@@H](c3ccc(N(C)C)cc3)C[C@@]21C` [mifepristone, reference compound], the “ED50, anti-Clauberg assay” value [2] is reported as 4.14 mg/day and the “effectiveness in inhibiting the endometrial response” value [2] is reported as 67%.

With `CC(=O)O[C@]1(C(C)=O)CC[C@H]2[C@@H]3CCC4=CC(=O)CCC4=C3[C@@H](c3ccc(N4CCCCC4)cc3)C[C@@]21C` [I 4-(N-piperidino) H O H --O--CO--CH3 H, 17α-Acetoxy-11β-[4-(N-piperidino)phenyl]-19-norpregna-4,9-diene-3,20-dione] the “ED50, anti-Clauberg assay” value [2] was 0.9 mg/day, the “potency relative to mifepristone” value ([2]; more potent than mifepristone) was “about 5 fold” and the “effectiveness in inhibiting the endometrial response” value [2] was 100%. The “anti-estrogenic activity in the Ishikawa assay” value ([3]; concentrations up to 10^-6 M) was “inactive”, the uterine weight [1, 12] was 998 ± 98 mg and the EC50 [4] was 0.2 nM. For the same molecule, the Emax [4] was 117%, the Emax [5] was 0% and the “McPhail Index, McGinty Assay (Agonist)” value ([6]; dose 0.3 micrograms) was 0.1 +/- 0.1. The “McPhail Index, McGinty Assay (Agonist)” value ([6]; dose 3 micrograms) was 0 +/- 0, the “McPhail Index, McGinty Assay (Agonist)” value ([6]; dose 30 micrograms) was 0.2 +/- 0.1 and the IC50 [7] was 1.2 nM.

`C[C@@H]1C[C@H]2[C@@H]3CCC4=CC(=O)C=C[C@]4(C)[C@@]3(F)[C@@H](O)C[C@]2(C)[C@@]1(O)C(=O)CO` [dexamethasone, reference compound] showed a thymus weight ([8]; 6 μg dexamethasone alone per day, 7 days) of 65 ± 8 mg.

For `CC(=O)O[C@]1(C(C)=O)CC[C@H]2[C@@H]3CCC4=CC(=O)CCC4=C3[C@@H](c3ccc4c(ccn4C)c3)C[C@@]21C` [I 1-methylindol-5-yl O H --O--CO--CH3 H, 17α-Acetoxy-11β-(1-methylindol-5-yl)-19-norpregna-4,9-diene-3,20-dione], the “anti-estrogenic activity in the Ishikawa cell assay” value [3] was “inactive”, the uterine weight [1, 12] was 956 ± 115 mg and the EC50 [4] was 0.7 nM. For the same molecule, the Emax [4] was 110%, the Emax [5] was 17% and the “McPhail Index, McGinty Assay (Agonist)” value ([6]; dose 0.3 micrograms) was 0 +/- 0. The “McPhail Index, McGinty Assay (Agonist)” value ([6]; dose 3 micrograms) was 0 +/- 0, the “McPhail Index, McGinty Assay (Agonist)” value ([6]; dose 30 micrograms) was 0 +/- 0 and the thymus weight ([8]; 6 μg dexamethasone + 1,000 μg test compound per day, 7 days) was 105 ± 8 mg. The antiglucocorticoid activity ([8]; 1000 μg per day, in words) was “little or no antiglucocorticoid activity in vivo”, the glucocorticoid activity ([8]; compound given alone, in words) was “Neither did it show significantglucocorticoid activity” and the thymus weight ([8]; test compound given alone) was 270 ± 13 mg. For the same molecule, the IC50 [7] was 2.4 nM.

In the case of `CN(C)c1ccc([C@H]2C[C@@]3(C)[C@@H](CC[C@@]34OC(=O)CCC4=O)[C@@H]3CCC4=CC(=O)CCC4=C32)cc1` [II 4-Me2 N H O H -- H H H, 11β-[4-(N,N-dimethylamino)phenyl]-3,20-dioxo-17α-hydroxy-19,21-dinorchola-4,9-dien-24-oic acid δ-lactone], the “antiprogestational activity, anti-McGinty test” value ([9]; in words) is reported as “potent antiprogestational activity”, the IC50 ([10]; cytosolic receptor from rat central prostate, [3H]-5α-dihydrotestosterone) is reported as 90 nM and the androgen receptor affinity ([10]; in words) is reported as “very low affinity”. For the same molecule, the “McPhail Index, McGinty Assay (Agonist)” value ([6]; dose 0.3 micrograms) was 0 +/- 0, the “McPhail Index, McGinty Assay (Agonist)” value ([6]; dose 3 micrograms) was 0 +/- 0 and the “McPhail Index, McGinty Assay (Agonist)” value ([6]; dose 30 micrograms) was 0. For the same molecule, the “progestational activity, McGinty test” value ([6]; in words) was “no evidence of progestational activity” and the IC50 [7] was 11.9 nM.

In the case of `CC(=O)O[C@]1(C(C)=O)CC[C@H]2[C@@H]3CCC4=CC(=O)CCC4=C3[C@@H](c3ccc(N(C)C)cc3)C[C@@]21C` [17α-acetoxy-11β-(4-(N,N-dimethylamino)phenyl)-19-norpregna-4,9-diene-3,20-dione], the antiprogestational activity [11] is listed as “potent antiprogestational activity”.

For `CC(=O)O[C@]1(C(C)=O)CC[C@H]2[C@@H]3CCC4=CC(=O)CCC4=C3[C@@H](c3ccc(N4CCCC4)cc3)C[C@@]21C` [I 4-(N-pyrrolidino) H O H --O--CO--CH3 H, 17α-Acetoxy-11β-[4-(N-pyrrolidino)phenyl]-19-norpregna-4,9-diene-3-20-dione], the “anti-estrogenic activity in the Ishikawa cell assay” value [3] was “inactive”, the uterine weight [1, 12] was 919 ± 115 mg and the EC50 [4] was 0.4 nM. The Emax [4] was 108%, the Emax [5] was 1% and the “McPhail Index, McGinty Assay (Agonist)” value ([6]; dose 0.3 micrograms) was 0 +/- 0. For the same molecule, the “McPhail Index, McGinty Assay (Agonist)” value ([6]; dose 3 micrograms) was 0 +/- 0, the “McPhail Index, McGinty Assay (Agonist)” value ([6]; dose 30 micrograms) was 0 +/- 0 and the IC50 [7] was 0.8 nM.

With `CC(=O)[C@@]1(O)CC[C@H]2[C@@H]3CCC4=CC(=O)CCC4=C3[C@@H](c3ccc(N(C)C)cc3)C[C@@]21C` [I 4-Me2 N H O H --OH H] the “McPhail Index, McGinty Assay (Antagonist)” value (shortened to “McPhail Index … (Antagonist)”) ([9]; dose 0.3 micrograms) was 2.8 +/- 0, the “McPhail Index … (Antagonist)” value ([9]; dose 3 micrograms) was 2.4 +/- 0.4 and the “McPhail Index … (Antagonist)” value ([9]; dose 30 micrograms) was 2.1 +/- 0.4. For the same molecule, the Emax [4] was 29%, the Emax [5] was 4% and the “McPhail Index, McGinty Assay (Agonist)” value ([6]; dose 0.3 micrograms) was 0 +/- 0. For the same molecule, the “McPhail Index, McGinty Assay (Agonist)” value ([6]; dose 3 micrograms) was 0 +/- 0, the “McPhail Index, McGinty Assay (Agonist)” value ([6]; dose 30 micrograms) was 0 +/- 0 and the IC50 [7] was 26 nM.
